Test results: patent US20040076974A1, “Liver necrosis predictive genes” (priority 2002, published 2004)
Like-named read-outs stand apart in the source and are kept apart here.

Test system: Sprague Dawley rats
Experimental: Sprague Dawley rats Crl:CD from Charles River, Raleigh, N.C. were divided into treated rats that receive a specific concentration of the compound (see Table 1) and. control rats that only received the vehicle in which the compound is mixed (e.g., saline).
At specified timepoints (6 h, 24 h and 72 h) after administration (intraperitoneal route) of the compound, a set number of rats (usually 3 control and 3 treated) were euthanized and tissues collected. Each, rat was heavily sedated with an overdose of CO2 by inhalation and a maximum amount of blood drawn. Exsanguination of the rat by this drawing of blood kills the rat. The method of collecting the tissues is very important and ensures preserving the quality of the mRNA in the tissues. The body of the rat was then opened up and prosectors rapidly removed the tissues (including) and immediately placed them into liquid nitrogen. […] The organs/tissues were then packaged into well-labeled plastic freezer quality bags and stored at −80 degrees until needed for isolation of the mRNA from a portion of the organ/tissue sample.
Histopathology scores for each animal (assigned on a compound-dose basis as indicated in Table 1) were entered with gene expression data by using the GeneSpring™ ‘Drawn Gene’ function. Correlations between the histopathology scores and gene expression were conducted with the distance measures listed below:
Toxicity classifications were entered for training and test set as a parameter column. Toxicity, as defined by observation of necrosis in the at 72 hours after treatment, was entered as a “yes” or “no” for each animal in a compound-dose group. Additionally, a parameter column for random histopathology classification was designated. This was done by randomly assigning the same number of “yes” and “no” calls to the individual animals.

[1] = Sprague Dawley, rat, in vivo, ip, 50 mg/kg, 72 h
[2] = Sprague Dawley, rat, in vivo, ip, 200 mg/kg, 72 h

Nc1nc(O)c2ncn(COC(CO)CO)c2n1 [gancyclovir]
Score (histopathology liver necrosis severity score) [1]: 1
Score (histopathology liver necrosis severity score) [2]: 1
Liver Toxicity Necrosis Classification (rat, in vivo): no
Liver Necrosis (rat, in vivo, ip, 50 mg/kg): no
Liver Necrosis (rat, in vivo, ip, 200 mg/kg): no

NC(=O)NO [hydroxyurea]
Score (histopathology liver necrosis severity score) (Sprague Dawley, rat, in vivo, ip, 250 mg/kg, 72 h): 1
Score (histopathology liver necrosis severity score) (Sprague Dawley, rat, in vivo, ip, 1000 mg/kg, 72 h): 1
Liver Toxicity Necrosis Classification (rat, in vivo): no
Liver Necrosis (rat, in vivo, ip, 250 mg/kg): no
Liver Necrosis (rat, in vivo, ip, 1000 mg/kg): no

NNC(=O)c1ccncc1 [isoniazid]
Score (histopathology liver necrosis severity score) [1]: 1
Score (histopathology liver necrosis severity score) [2]: 1
Liver Toxicity Necrosis Classification (rat, in vivo): no
Liver Necrosis (rat, in vivo, ip, 50 mg/kg): no
Liver Necrosis (rat, in vivo, ip, 200 mg/kg): no

CC(=O)N1CCN(c2ccc(OCC3COC(Cn4ccnc4)(c4ccc(Cl)cc4Cl)O3)cc2)CC1 (stereo not drawn) [ketoconazole]
Score (histopathology liver necrosis severity score) (Sprague Dawley, rat, in vivo, ip, 20 mg/kg, 72 h): 1
Score (histopathology liver necrosis severity score) (Sprague Dawley, rat, in vivo, ip, 80 mg/kg, 72 h): 1
Liver Toxicity Necrosis Classification (rat, in vivo): no
Liver Necrosis (rat, in vivo, ip, 20 mg/kg): no
Liver Necrosis (rat, in vivo, ip, 80 mg/kg): no

CN(Cc1cnc2nc(N)nc(N)c2n1)c1ccc(C(=O)N[C@@H](CCC(=O)O)C(=O)O)cc1 [methotrexate]
Score (histopathology liver necrosis severity score) (Sprague Dawley, rat, in vivo, ip, 5 mg/kg, 72 h): 1
Liver Toxicity Necrosis Classification (rat, in vivo): no
Liver Necrosis (rat, in vivo, ip, 5 mg/kg): no

C=CCN1CC[C@]23c4c5ccc(O)c4O[C@H]2C(=O)CC[C@@]3(O)[C@H]1C5 [naloxone]
Liver Toxicity Necrosis Classification (rat, in vivo): no
Score (histopathology liver necrosis severity score) (rat, in vivo, ip): 1
Liver Necrosis (rat, intraperitoneal, dose 180 mg/kg, 72 hours after treatment): no
Score (histopathology liver necrosis severity score) (rat, intraperitoneal, dose 180 mg/kg, 72 hours; 1 = not remarkable, 2 and higher increasing severity): 1
Liver Necrosis (rat, intraperitoneal, dose 45 ml/kg, 72 hours after treatment): no

COc1ccc(C[C@H](N)C(=O)N[C@H]2[C@@H](O)[C@H](n3cnc4c(N(C)C)ncnc43)O[C@@H]2CO)cc1 [puromycin]
Score (histopathology liver necrosis severity score) (Sprague Dawley, rat, in vivo, ip, 38 mg/kg, 72 h): 1
Score (histopathology liver necrosis severity score) (Sprague Dawley, rat, in vivo, ip, 150 mg/kg, 72 h): 1
Liver Toxicity Necrosis Classification (rat, in vivo): no
Liver Necrosis (rat, in vivo, ip, 38 mg/kg): no
Liver Necrosis (rat, in vivo, ip, 150 mg/kg): no

C=C[C@H]1C[N@@]2CC[C@H]1C[C@@H]2[C@@H](O)c1ccnc2ccc(OC)cc12 [quinidine]
Liver Necrosis (rat, intraperitoneal, dose 25 mg/kg, 72 hours after treatment): no
Score (histopathology liver necrosis severity score) (rat, intraperitoneal, dose 25 mg/kg, 72 hours; 1 = not remarkable, 2 and higher increasing severity): 1
Liver Necrosis (rat, intraperitoneal, dose 100 mg/kg, 72 hours after treatment): no
Score (histopathology liver necrosis severity score) (rat, intraperitoneal, dose 100 mg/kg, 72 hours; 1 = not remarkable, 2 and higher increasing severity): 1

Cn1c(=O)c2[nH]cnc2n(C)c1=O [theophylline]
Score (histopathology liver necrosis severity score) (Sprague Dawley, rat, in vivo, ip, 25 mg/kg, 72 h): 1
Score (histopathology liver necrosis severity score) (Sprague Dawley, rat, in vivo, ip, 100 mg/kg, 72 h): 1
Liver Toxicity Necrosis Classification (rat, in vivo): no
Liver Necrosis (rat, in vivo, ip, 25 mg/kg): no
Liver Necrosis (rat, in vivo, ip, 100 mg/kg): no

aflatoxin B1
Liver Necrosis (rat, in vivo, ip, 1 mg/kg): Yes
Score (histopathology liver necrosis severity score) (rat, in vivo, ip, 1 mg/kg): 8

carboxy methyl cellulose
Liver Necrosis (rat, in vivo, ip, 30 mg/kg): no
Score (histopathology liver necrosis severity score) (rat, in vivo, ip, 30 mg/kg): 1

gentamicin
Liver Toxicity Necrosis Classification (at 72 h; dose 38): no
Liver Toxicity Necrosis Classification (at 72 h; dose 150): no
Liver Toxicity Necrosis Classification (compound-dose group at 72 h, dose 38): no
Liver Toxicity Necrosis Classification (compound-dose group at 72 h, dose 150): no
Liver Toxicity Necrosis Classification (compound-dose group at 72 h; dose 38): no
Liver Toxicity Necrosis Classification (compound-dose group at 72 h; dose 150): no
Liver Toxicity Necrosis Classification (compound-dosegroup at 72 h; dose 38): no
Liver Necrosis (rat, intraperitoneal, dose 38 mg/kg, 72 hours after treatment): no
Score (histopathology liver necrosis severity score) (rat, intraperitoneal, dose 38 mg/kg, 72 hours; 1 = not remarkable, 2 and higher increasing severity): 1
Liver Necrosis (rat, intraperitoneal, dose 150 mg/kg, 72 hours after treatment): no
Score (histopathology liver necrosis severity score) (rat, intraperitoneal, dose 150 mg/kg, 72 hours; 1 = not remarkable, 2 and higher increasing severity): 1
